Values joined by “and” are separate entries in the source; they are usually repeats but may differ in a detail not shown here. Equal entries are not always repeated.
Columns and labels:
human ERα [1] = target: T1, human ERα (Homo sapiens, UniProt P03372); experiment: Yeast estrogen screen (YES) assay, antagonistic activity (β-galactosidase reporter); type: cell-based, yeast (Saccharomyces cerevisiae); conditions: compounds at 1 µM in presence of 0.5 nM/1 nM E2 (E2 set as 1); triplicates
T1 construct: host or cells: Saccharomyces cerevisiae
T1 sequence (P03372 1-595): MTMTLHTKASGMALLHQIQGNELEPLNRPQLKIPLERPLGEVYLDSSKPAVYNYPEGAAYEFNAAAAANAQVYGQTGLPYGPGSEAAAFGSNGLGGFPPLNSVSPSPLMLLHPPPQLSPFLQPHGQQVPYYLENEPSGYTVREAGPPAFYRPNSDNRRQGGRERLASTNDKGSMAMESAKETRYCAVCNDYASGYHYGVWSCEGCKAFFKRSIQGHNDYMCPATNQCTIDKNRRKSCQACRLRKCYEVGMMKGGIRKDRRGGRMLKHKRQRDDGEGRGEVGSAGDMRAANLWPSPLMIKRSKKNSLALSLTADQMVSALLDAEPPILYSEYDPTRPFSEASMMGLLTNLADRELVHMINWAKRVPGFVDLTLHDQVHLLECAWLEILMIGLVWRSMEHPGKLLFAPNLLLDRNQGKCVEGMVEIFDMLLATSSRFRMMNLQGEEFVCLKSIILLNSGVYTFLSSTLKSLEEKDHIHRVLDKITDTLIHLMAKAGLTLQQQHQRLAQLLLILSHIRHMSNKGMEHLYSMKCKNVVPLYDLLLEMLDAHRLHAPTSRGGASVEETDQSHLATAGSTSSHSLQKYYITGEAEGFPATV
Experimental: (§1) All synthesized compounds were tested for their relative activity in β-galactosidase in a yeast estrogen screen (YES) assay. Compounds were tested for their relative estrogenic/anti-estrogenic activities in comparison to positive and negative controls, respectively. YES assay is a gene reporter assay where the DNA sequence of human ERα is integrated into the yeast genome completed with an expression plasmid carrying estrogen response elements (ERE) in the promoter controlling the expression of the reporter gene lacZ (encoding the enzyme β-galactosidase). In the presence of estrogenic compounds, β-galactosidase is synthesized and secreted into the medium, where it converts the chromogenic substrate chlorophenol red-β-D-galactopyranoside (CRPG) from a yellow to a red product, whose absorbance is measured. […] Therefore, we decided to test the novel compounds in an organ-specific in vitro model using the human Ishikawa endometrial adenocarcinoma cell line.
(§2) The yeast estrogen receptor assay was supplied by Dr. J.P. Sumpter (Brunel University, Uxbridge, UK) and was used to determine the relative transactivation activity of the human ERα as formerly described. Briefly, Saccharomyces cerevisiae stably transfected with a human ERα and an estrogen-responsive element fused to the reporter gene lacZ encoding for β-galactosidase were treated with the test substances for about 48 h. The β-galactosidase enzymatic activity was measured in a colorimetric assay using a microplate photometer by hydrolysis of the substrate chlorophenol red β-D-galactopyranoside (Roche Diagnostics, Mannheim, Germany), which leads to the formation of chlorophenol red. This can be measured as an increased absorption at 540 nm. All compounds were diluted in DMSO. […] All compounds were tested in technical quadruplicates and biological triplicates. Statistical analysis was performed by analysis of variance (ANOVA) and Tukey’s post-hoc test with the significance level of p < 0.05.

human ERα [2] = target: T1, human ERα; experiment: Yeast estrogen screen (YES) assay, agonistic activity (β-galactosidase reporter); type: cell-based; conditions: compounds at 1 µM; compared to DMSO (set as 1); triplicates
Experimental: as §1
All synthesized compounds were tested for their relative β-galactosidase activity in a yeast estrogen screen (YES) assay at a concentration of 1 µM using DMSO as control (set as 1).
as §2

[3] = system: Ishikawa endometrial adenocarcinoma cell line; experiment: Alkaline phosphatase (AlkP) activity in Ishikawa cells; type: cell-based, human; conditions: for Relative alkaline phosphatase activity: 72 h, DMSO set to 1; for effect on AlkP activity (in words): 72 h treatment, 5-dose assay 1 nM to 10 µM
Experimental: Alkaline phosphatase (AlkP) activity in these human endometrial cancer cells is markedly stimulated by estrogens.
Because of the potential SERM character of the compounds tested, their estrogenic effects were studied in an endometrial-derived cell culture model, the human endometrial adenocarcinoma cell line Ishikawa. […] All compounds were screened at two concentrations, 0.1 and 1 µM. Its agonistic effect was compared to the vehicle control DMSO (data shown in Supplementary Materials). […] The four compounds were studied in a concentration range of 1 nM to 10 µM.
Estrogens stimulate the activity of alkaline phosphatase (AlkP) in Ishikawa cells (human endometrial adenocarcinoma cells; kindly provided by Prof. Masato Nishida, National Hospital Organization, Kasumigaura Medical Center, Japan). This enzyme activity is estimated by using the chromogen substrate (4-nitrophenylphosphate). […] The procedure was modified by Littlefield et al., 1990 [42].
After 72 h incubation, cells were harvested, washed twice with PBS, and incubated at −80 °C for about 30 min to lyse the cells. After thawing, the lysates were resuspended in reaction buffer (274 mM mannitol, 100 mM CAPS, 4 mM MgCl2, pH 10.4) containing 4 mM p-nitrophenylphosphate (NPP). After incubation for 1 h in the dark, AlkP activity was assayed by using the hydrolysis of p-nitrophenylphosphate to p-nitrophenol at pH 10.4 and the spectrometric determination of the kinetic of the product formation at 405 nm. All compounds were tested in technical triplicates and biological triplicates. Statistical analysis was performed by analysis of variance (ANOVA) and Tukey’s post-hoc test with the significance level of p < 0.05.

Structure (SMILES)	Anti-Estrogenic Activity (relative β-galactosidase activity) (human ERα [1])	Estrogenic Activity (relative β-galactosidase activity) (human ERα [2])	Relative alkaline phosphatase activity ([3]; 1 nM)	Relative alkaline phosphatase activity ([3]; 10 nM)	Relative alkaline phosphatase activity ([3]; 100 nM)	Relative alkaline phosphatase activity ([3]; 1 µM)	Relative alkaline phosphatase activity ([3]; 10 µM)	effect on AlkP activity (in words) [3]
CC(=C(c1ccc(Cl)cc1)c1ccc(OCCCN(C)C)cc1)c1ccccc1 [Compound 5, E/Z-(3-{4-[1-(4-Chloro-phenyl)-2-phenyl-propenyl]-phenoxy}-propyl)-dimethyl-amine]	1.34 ± 0.15	2.25 ± 0.92	0.93 ± 0.64	0.95 ± 0.37	1.05 ± 0.30	1.08 ± 0.33	0.21 ± 0.16	No significant effects
COc1ccc(C(C)=C(c2ccc(Cl)cc2)c2ccc(OCCN3CCCC3)cc2)cc1 [Compound 11, E/Z-1-(2-{4-[1-(4-Chloro-phenyl)-2-(4-methoxy-phenyl)-propenyl]-phenoxy}-ethyl)-pyrrolidine]	1.55 ± 0.12	1.98 ± 0.12	1.25 ± 0.61	1.13 ± 0.31	1.75 ± 0.50	–	1.36 ± 0.38	increase the AlkP activity in a dose-pendent manner
COc1ccc(C(C)=C(c2ccc(Cl)cc2)c2ccc(OCCCN(C)C)cc2)cc1 [Compound 10, E/Z-(3-{4-[1-(4-Chloro-phenyl)-2-(4-methoxy-phenyl)-propenyl]-phenoxy}-propyl)-dimethyl-amine]	3.92 ± 0.58	11.61 and 11.61 ± 0.99	–	–	–	2.55 ± 1.80	–	–
CC(=C(c1ccc(Cl)cc1)c1ccc(OCCN2CCCCCC2)cc1)c1ccccc1 [Compound 9, E/Z-1-(2-{4-[1-(4-Chloro-phenyl)-2-phenyl-propenyl]-phenoxy}-ethyl)-azepane]	1.99 ± 0.02	6.74 and 6.74 ± 1.67	–	–	–	2.94 ± 1.29	–	–
COc1ccc(C(C)=C(c2ccc(Cl)cc2)c2ccc(OCCN3CCCCCC3)cc2)cc1 [Compound 14, E/Z-1-(2-{4-[1-(4-Chloro-phenyl)-2-(4-methoxy-phenyl)-propenyl]-phenoxy}-ethyl)-azepane]	1.53 ± 0.09	1.80 ± 0.09	–	–	–	6.58 ± 2.24	–	–
COc1ccc(C(C)=C(c2ccc(Cl)cc2)c2ccc(OCCN3CCCCC3)cc2)cc1 [Compound 12, E/Z-1-(2-{4-[1-(4-Chloro-phenyl)-2-(4-methoxy-phenyl)-propenyl]-phenoxy}-ethyl)-piperidine]	2.55 ± 0.41	3.65 ± 0.70	0.95 ± 0.02	0.96 ± 0.01	1.14 ± 0.01	–	0.42 ± 0.13	increase the AlkP activity in a dose-pendent manner
CC(=C(c1ccc(Cl)cc1)c1ccc(OCCN2CCOCC2)cc1)c1ccccc1 [Compound 8, E/Z-4-(2-{4-[1-(4-Chloro-phenyl)-2-phenyl-propenyl]-phenoxy}-ethyl)-morpholine]	1.11 ± 0.26	1.85 ± 0.11	–	–	–	1.16 ± 0.15	–	–
CC(=C(c1ccc(Cl)cc1)c1ccc(OCCN2CCCC2)cc1)c1ccccc1 [Compound 6, E/Z-1-(2-{4-[1-(4-Chloro-phenyl)-2-phenyl-propenyl]-phenoxy}-ethyl)-pyrrolidine]	1.20 ± 0.19	2.88 ± 0.89	–	–	–	2.55 ± 1.35	–	–
CC(=C(c1ccc(Cl)cc1)c1ccc(OCCN2CCCCC2)cc1)c1ccccc1 [Compound 7, E/Z-1-(2-{4-[1-(4-Chloro-phenyl)-2-phenyl-propenyl]-phenoxy}-ethyl)-piperidine]	1.35 ± 0.16	2.87 ± 0.90	–	–	–	2.55 ± 1.80	–	–
COc1cc(C(C)=C(c2ccc(Cl)cc2)c2ccc(OCCN3CCCC3)cc2)ccc1F [Compound 23, E/Z-1-(2-{4-[1-(4-Chlorophenyl)-2-(4-fluoro-3-methoxyphenyl)-propenyl]-phenoxy}-ethyl)-pyrrolidine]	1.06 ± 0.05	1.41 ± 1.01	–	–	–	–	–	–

From publication PMC8621172, “Manipulating Estrogenic/Anti-Estrogenic Activity of Triphenylethylenes towards Development of Novel Anti-Neoplastic SERMs” (International Journal of Molecular Sciences, 2021)
